Test results as given in US5506134A, “Hypridoma and monoclonal antibody which inhibits blood coagulation tissue factor/factor VIIa complex” (Corvas International, Inc., priority 1991, dated 1996).

Target: T1, tissue factor:factor VIIa complex (tissue factor on human bladder carcinoma J-82 cells) (Homo sapiens, UniProt P08709)
T1 construct: endogenous in cells; host or cells: J-82 (ATCC HTB-1) human bladder carcinoma cells: source of the tissue factor only
Experiment: Factor X activation chromogenic substrate assay (J-82 cells as source of tissue factor, Spectrozyme Xa)
Format: biochemical
Settings: PPACK 1 μM; positive control; 30 min at room temperature, OD-405; read-out: Percent Inhibition of F.X Activation
Source text: The second screening was used to evaluate the ability of isolated antibodies to inhibit tissue factor catalyzed factor VII activity as reflected by the conversion of factor X to factor Xa. The human bladder carcinoma cell line J-82 (ATCC HTB-1) expresses cell surface-associated tissue factor and is used as the source of tissue factor and phospholipids. A chromogenic substrate for factor Xa is used, which develops color proportional to the amount of factor VIIa activity. Conversely, color is not developed if factor VII activity is blocked. The assay is performed as follows. J-82 cells are suspended in tris-buffered saline at a concentration of 1×10^5 cells per mL. Fifty microliters of cell suspension is added to individual wells of a 96-well polystyrene microliter plate. Fifty microliters of hybridoma culture supernatant diluted at least 1:10 is added to appropriate wells followed by 25 μL of 20 mM CaCl2. Negative control is irrelevant hybridoma culture supernatant (such as anti-tPA supernatant) and positive control is 1 μM PPACK (d-phenylalanine-proline-arginine-chloromethylkefone). Twenty-five microliters of 90 nM factor X and 50 λL of substrate Spectrozyme Xa are added to each well. Following thirty minute incubation at room temperature, OD-405 is determined. […]

T1 sequence (P08709 213-466 limits assumed): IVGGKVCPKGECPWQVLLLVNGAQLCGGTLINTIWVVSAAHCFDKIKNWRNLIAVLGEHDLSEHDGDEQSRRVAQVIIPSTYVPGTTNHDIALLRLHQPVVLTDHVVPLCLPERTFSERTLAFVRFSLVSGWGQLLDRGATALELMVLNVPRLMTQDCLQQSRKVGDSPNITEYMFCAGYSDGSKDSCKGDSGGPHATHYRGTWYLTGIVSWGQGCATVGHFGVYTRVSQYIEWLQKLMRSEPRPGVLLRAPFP
T1 sequence (P08709 61-212 limits assumed): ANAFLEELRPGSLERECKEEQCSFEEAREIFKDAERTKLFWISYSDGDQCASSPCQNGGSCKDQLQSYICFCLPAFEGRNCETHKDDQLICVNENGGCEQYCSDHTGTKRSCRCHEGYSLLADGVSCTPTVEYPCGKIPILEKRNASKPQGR
T1 sequence (P13726 33-295 partner): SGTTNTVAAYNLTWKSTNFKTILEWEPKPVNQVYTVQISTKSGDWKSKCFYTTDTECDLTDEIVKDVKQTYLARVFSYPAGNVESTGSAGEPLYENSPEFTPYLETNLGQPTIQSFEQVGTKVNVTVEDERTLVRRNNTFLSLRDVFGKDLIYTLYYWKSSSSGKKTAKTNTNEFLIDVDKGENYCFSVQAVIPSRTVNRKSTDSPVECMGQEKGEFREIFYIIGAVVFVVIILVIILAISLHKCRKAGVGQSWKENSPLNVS

N=C(N)NCCC[C@H](NC(=O)[C@@H]1CCCN1C(=O)[C@H](N)Cc1ccccc1)C(=O)CCl [PPACK, d-phenylalanine-proline-arginine-chloromethylkefone]
inhibition at 1 µM: 100%
